US12583858B2 (Genentech, Inc., priority 2015, dated 2026)

Target: T1, TDO2 (Homo sapiens, UniProt P48775)
T1 construct: decreased levels of NFK in SW48 cells (high TDO expressing cells)
Test: TDO2 cell assay (NFK GreenScreen, SW48 cells)
Format: cell-based
Settings: SW48 cells (high TDO expressing), 200 uM tryptophan, 24 hours; Table 3; read-out: TDO2 Cell Fluor EC50

T1 sequence (P48775 whole entry): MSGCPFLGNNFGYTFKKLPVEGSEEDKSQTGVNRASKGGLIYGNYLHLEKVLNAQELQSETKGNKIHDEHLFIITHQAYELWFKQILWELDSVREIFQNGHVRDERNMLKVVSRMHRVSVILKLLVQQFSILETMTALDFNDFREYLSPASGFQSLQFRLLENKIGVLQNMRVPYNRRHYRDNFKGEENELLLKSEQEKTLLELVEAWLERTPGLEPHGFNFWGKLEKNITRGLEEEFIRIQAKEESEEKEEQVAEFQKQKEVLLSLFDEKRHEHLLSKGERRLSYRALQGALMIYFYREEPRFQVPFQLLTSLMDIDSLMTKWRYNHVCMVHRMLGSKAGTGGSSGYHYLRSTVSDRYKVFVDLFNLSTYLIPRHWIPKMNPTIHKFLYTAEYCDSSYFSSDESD

Compound | EC50
N#Cc1cnn2c1[C@@H](O)[C@@H]([C@H]1c3ccccc3-c3cncn31)CC2 (single isomer, unassigned) [Example 156c] | 19 µM
N#Cc1cnn2c1[C@@H](O)[C@@H]([C@H]1c3ccccc3-c3cncn31)CC2 (single isomer, unassigned) [Example 156d] | > 25 µM
N#Cc1cnn2c1[C@@H](O)[C@H]([C@H]1c3ccccc3-c3cncn31)CC2 (single isomer, unassigned) [Example 156f] | > 25 µM
O[C@@H]1c2[nH]ncc2CC[C@H]1[C@@H]1c2ccccc2-c2cncn21 (single isomer, unassigned) [Example 157b] | 22 µM
OC1c2[nH]ncc2CCC1C1c2ccccc2-c2cncn21 (single isomer, unassigned) [Example 157c] | 14 µM
OC1c2[nH]ncc2CCC1C1c2ccccc2-c2cncn21 (single isomer, unassigned) [Example 157f] | > 25 µM
Cc1cnn2c1C(O)C(C1c3ccccc3-c3cncn31)CC2 (single isomer, unassigned) [Example 159b] | 14 µM
Cc1cnn2c1C(O)C(C1c3ccccc3-c3cncn31)CC2 (single isomer, unassigned) [Example 159d] | 3.7 µM
O[C@@H]1c2c(Cl)cnn2CC[C@@H]1[C@H]1c2ccccc2-c2cncn21 (single isomer, unassigned) [Example 160c] | 23 µM
O[C@@H]1c2c(Cl)cnn2CC[C@@H]1[C@H]1c2ccccc2-c2cncn21 (single isomer, unassigned) [Example 160d] | 6 µM
Nc1cc2n(n1)CCC(C1c3ccccc3-c3cncn31)C2O (single isomer, unassigned) [Example 161c] | 1 µM
Nc1cc2n(n1)CCC(C1c3ccccc3-c3cncn31)C2O (single isomer, unassigned) [Example 161e] | > 25 µM
Nc1cc2n(n1)CCC(C1c3ccccc3-c3cncn31)C2O (single isomer, unassigned) [Example 161g] | > 25 µM
Nc1cc2n(n1)CCC(C1c3ccccc3-c3cncn31)C2O (single isomer, unassigned) [Example 161h] | 18 µM
OC1c2nonc2CCC1C1c2ccccc2-c2cncn21 (single isomer, unassigned) [Example 163c] | 15 µM
OC1c2nonc2CCC1C1c2ccccc2-c2cncn21 (single isomer, unassigned) [Example 163e] | 6.1 µM
OC1c2nonc2CCC1C1c2ccccc2-c2cncn21 (single isomer, unassigned) [Example 163f] | > 25 µM
OC1c2nonc2CCC1C1c2ccccc2-c2cncn21 (single isomer, unassigned) [Example 163h] | 0.93 µM
CC1(C)CCCCC1(O)C1c2ccccc2-c2cncn21 (single isomer, unassigned) [Example 164b] | 7.5 µM
NC(=O)C1(C(O)C2c3ccccc3-c3cncn32)CC1 (single isomer, unassigned) [Example 165c] | 11 µM
Cc1cc2n(n1)CCC(C1c3ccccc3-c3cncn31)C2O (single isomer, unassigned) [Example 166a] | > 25 µM
O[C@H]1c2cccnc2CC[C@@H]1[C@@H]1c2ccc(F)cc2-c2cncn21 (single isomer, unassigned) [Example 169b] | 16 µM
OC1CCOCC1C1c2cccc(F)c2-c2cncn21 (single isomer, unassigned) [Example 170a] | > 25 µM

Compound | EC50
OC1CCOCC1C1c2cccc(F)c2-c2cncn21 (single isomer, unassigned) [Example 170b] | 2.1 µM
OC1CCOCC1C1c2cccc(F)c2-c2cncn21 (single isomer, unassigned) [Example 170c] | > 25 µM
OC1CCOCC1C1c2cccc(F)c2-c2cncn21 (single isomer, unassigned) [Example 170d] | 13 µM
Cc1ccc2c(c1)-c1cncn1C2C1COCC1O (single isomer, unassigned) [Example 171a] | 0.999 µM
Cc1ccc2c(c1)-c1cncn1C2C1COCC1O (single isomer, unassigned) [Example 171b] | > 25 µM
Cc1ccc2c(c1)-c1cncn1C2C1COCC1O (single isomer, unassigned) [Example 171c] | 5.8 µM
Cc1ccc2c(c1)-c1cncn1C2C1COCC1O (single isomer, unassigned) [Example 171d] | 17.7 µM
NC(=O)c1cc2n(n1)CCC(C1c3ccccc3-c3cncn31)C2O (single isomer, unassigned) [Example 172a] | > 25 µM
NC(=O)c1cc2n(n1)CCC(C1c3ccccc3-c3cncn31)C2O (single isomer, unassigned) [Example 172b] | 1.1 µM
OC1c2cc(C(F)F)nn2CCC1C1c2ccccc2-c2cncn21 (single isomer, unassigned) [Example 173a] | > 25 µM
N#Cc1cc2n(n1)CCC(C1c3ccccc3-c3cncn31)C2O (single isomer, unassigned) [Example 174a] | > 25 µM
Cc1nc2c(o1)CCC(C1c3ccccc3-c3cncn31)C2O (single isomer, unassigned) [Example 178b] | > 25 µM
CS(=O)(=O)N1CCC2(CC1)CC(C1c3ccccc3-c3cncn31)C2O (single isomer, unassigned) [Example 179c] | > 25 µM
CS(=O)(=O)N1CCC2(CC1)CC(C1c3ccccc3-c3cncn31)C2O (single isomer, unassigned) [Example 179e] | 6.8 µM
CS(=O)(=O)N1CCC2(CC1)CC(C1c3ccccc3-c3cncn31)C2O (single isomer, unassigned) [Example 179g] | 0.79 µM
CS(=O)(=O)N1CCC2(CC1)CC(C1c3ccccc3-c3cncn31)C2O (single isomer, unassigned) [Example 179h] | 8.6 µM
CS(=O)(=O)N1CCC2(CCC(C3c4ccccc4-c4cncn43)C2O)CC1 (single isomer, unassigned) [Example 180b] | > 25 µM
CS(=O)(=O)N1CCC2(CCC(C3c4ccccc4-c4cncn43)C2O)CC1 (single isomer, unassigned) [Example 180d] | > 25 µM
NS(=O)(=O)N1CCC2(CC1)CC(C1c3ccccc3-c3cncn31)C2O (single isomer, unassigned) [Example 181b] | > 25 µM
NS(=O)(=O)N1CCC2(CC1)CC(C1c3ccccc3-c3cncn31)C2O (single isomer, unassigned) [Example 181c] | > 25 µM
NS(=O)(=O)N1CCC2(CC1)CC(C1c3ccccc3-c3cncn31)C2O (single isomer, unassigned) [Example 181d] | 3 µM
NS(=O)(=O)N1CCC2(CC1)CC(C1c3ccccc3-c3cncn31)C2O (single isomer, unassigned) [Example 181e] | 12 µM

Molecules with a lower EC50, results first:

EC50 | Compound
0.24 µM | N#Cc1cnn2c1C(O)C(C1c3ccccc3-c3cncn31)CC2 (single isomer, unassigned) [Example 156b]
0.25 µM | N#Cc1cnn2c1C(O)C(C1c3ccccc3-c3cncn31)CC2 (single isomer, unassigned) [Example 156e]
0.37 µM | OC1c2[nH]ncc2CCC1C1c2ccccc2-c2cncn21 (single isomer, unassigned) [Example 157a]
0.096 µM | OC1c2[nH]ncc2CCC1C1c2ccccc2-c2cncn21 (single isomer, unassigned) [Example 157e]
0.76 µM | OC1c2[nH]ncc2CCC1C1c2ccccc2-c2cncn21 (single isomer, unassigned) [Example 157h]
0.27 µM | Cc1cnn2c1C(O)C(C1c3ccccc3-c3cncn31)CC2 (single isomer, unassigned) [Example 159a]
0.25 µM | Cc1cnn2c1C(O)C(C1c3ccccc3-c3cncn31)CC2 (single isomer, unassigned) [Example 159c]
0.1 µM | OC1c2nonc2CCC1C1c2ccccc2-c2cncn21 (single isomer, unassigned) [Example 163a]
0.06 µM | OC1c2nonc2CCC1C1c2ccccc2-c2cncn21 (single isomer, unassigned) [Example 163b]
0.054 µM | OC1c2nonc2CCC1C1c2ccccc2-c2cncn21 (single isomer, unassigned) [Example 163d]
0.44 µM | OC1c2nonc2CCC1C1c2ccccc2-c2cncn21 (single isomer, unassigned) [Example 163g]
0.04 µM | CC1(C)CCCCC1(O)C1c2ccccc2-c2cncn21 (single isomer, unassigned) [Example 164a]
0.27 µM | Cc1cc2n(n1)CCC(C1c3ccccc3-c3cncn31)C2O (single isomer, unassigned) [Example 166b]
0.14 µM | Cc1nc2c(o1)CCC(C1c3ccccc3-c3cncn31)C2O (single isomer, unassigned) [Example 168a]
0.21 µM | OC1c2cccnc2CCC1C1c2ccc(F)cc2-c2cncn21 (single isomer, unassigned) [Example 169a]
0.43 µM | OC1c2cc(C(F)F)nn2CCC1C1c2ccccc2-c2cncn21 (single isomer, unassigned) [Example 173b]
0.15 µM | N#Cc1cc2n(n1)CCC(C1c3ccccc3-c3cncn31)C2O (single isomer, unassigned) [Example 174b]
0.12 µM | Cc1nc2c(o1)CCC(C1c3ccccc3-c3cncn31)C2O (single isomer, unassigned) [Example 178a]
0.54 µM | CS(=O)(=O)N1CCC2(CC1)CC(C1c3ccccc3-c3cncn31)C2O (single isomer, unassigned) [Example 179d]
0.12 µM | CS(=O)(=O)N1CCC2(CC1)CC(C1c3ccccc3-c3cncn31)C2O (single isomer, unassigned) [Example 179f]
0.37 µM | CS(=O)(=O)N1CCC2(CCC(C3c4ccccc4-c4cncn43)C2O)CC1 (single isomer, unassigned) [Example 180a]
0.098 µM | CS(=O)(=O)N1CCC2(CCC(C3c4ccccc4-c4cncn43)C2O)CC1 (single isomer, unassigned) [Example 180c]
0.66 µM | NS(=O)(=O)N1CCC2(CC1)CC(C1c3ccccc3-c3cncn31)C2O (single isomer, unassigned) [Example 181a]
